Patent publication US20100331384A1, “GUANIDINE BASED COMPOUNDS” (UNIVERSIDAD DEL PAIS VASCO/EUSKAL HERRIKO UNIBERTSITATEA, priority 2007, published 2010)
Entries after “also recorded” stand apart in the source; their conditions may differ. Values belong to the compound of their own block, whether it stands above or below them.

Columns and labels:
α2-ARs [1] = settings: starred compounds, affinity reported in reference 9 by the same group; cited from earlier work
α2-ARs [2] = settings: previously described, reference 9; cited from earlier work
α2-ARs [3] = target: T1, α2-ARs (Homo sapiens, UniProt P08913); test: [35S]GTPγS binding functional assay, compounds alone; assay type: biochemical; settings: for Emax: read-out: Emax (%), percentage efficacy relative to UK14304; for agonistic or antagonistic properties in [35S]GTPγS experiments: human brain PFC; for stimulation of [35S]GTPγS binding by the compound on its own: human brain PFC membranes
T1 construct: other: human brain tissue in vitro; other: stimulation of [35S]GTPγS b
Experimental: The [^35S]GTPγs binding assay constitutes a functional measure of the interaction of the receptor and the G-protein and is a useful tool to distinguish between agonists (increasing the nucleotide binding), inverse agonists (decreasing the nucleotide binding), and neutral antagonists (not affecting the nucleotide binding) of GPCRs.^20 Experiments were performed in low-affinity receptor conditions for agonists (presence of guanine nucleotides and sodium in the medium), and therefore, typical potency values are two-three logarithmic units lower than affinity values obtained in radioligand receptor binding experiments.^20
(§1) Preparation of membranes. Neural membranes (P2 fractions) were prepared from the PFC of human brains obtained at autopsy in the Instituto Vasco de Medicina Legal, Bilbao, Spain. Postmortem human brain samples of each subject (˜1 g) were homogenized using a Teflon-glass grinder (10 up-and-down strokes at 1500 rpm) in 30 volumes of homogenization buffer (1 mM MgCl2, and 5 mM Tris-HCl, pH 7.4) supplemented with 0.25 M sucrose. The crude homogenate was centrifuged for 5 min at 1000×g ([…]) and the supernatant was centrifuged again for 10 min at 40000×g (4° C.). The resultant pellet was washed twice in 20 volumes of homogenization buffer and recentrifuged in similar conditions. Aliquots of 1 mg protein were stored at −70° C. until assay.
[^35S]GTPγs binding assays. The incubation buffer for measuring [^35S]GTPγs binding to brain membranes contained, in a total volume of 500 μL, 1 mM EGTA, 3 mM MgCl2, 100 mM NaCl, […], 50 mM Tris-HCl at pH 7.4 and 0.5 nM [^35S]GTPγs. Proteins aliquots were thawed and re-suspended in the same buffer. The incubation was started by addition of the membrane suspension (40 μg of membrane proteins) to the previous mixture and was performed at 30° C. for 120 min with shaking. In order to evaluate the influence of the compounds on [^35S]GTPγs binding, 8 concentrations (10^−10 to 10^−3M) of the different compounds were added to the assay. Incubations were terminated by adding 3 mL of ice-cold re-suspension buffer followed by rapid filtration through Whatman GF/C filters pre-soaked in the same buffer. The filters were rinsed twice with 3 mL of ice-cold re-suspension buffer, transferred to vials containing 5 mL of OptiPhase HiSafe II cocktail (Wallac, UK) and the radioactivity trapped was determined by liquid scintillation spectrometry (Packard 2200CA). […] Non-specific binding of the radioligand was defined as the remaining [^35S]GTPγs binding in the presence of 10 μM unlabelled GTPγs.

α2-ARs [4] = target: T1, α2-ARs; test: [3H]RX821002 competition binding assay in human brain PFC membranes; settings: human brain tissue in vitro
[5] = system: extracellular NA levels in the PFC; test: In vivo microdialysis in the PFC, extracellular NA; design: species or system male Sprague Dawley rats; settings: for Emax of increase in extracellular NA levels: local administration by reverse dialysis 1-100 μM in PFC, percentage of basal values
Description: Intracerebral microdialysis is a neurochemical technique that has been applied extensively in pharmacological studies aimed at investigating the effect of different drugs on brain neurotransmission. This technique allows one to collect a representative concentration of different neurotransmitters of the area where the probe is implanted while the animals are awake and freely moving.^21
Most antidepressant drugs are able to increase NA extracellular concentrations in different brain areas as the PFC, an area implicated in depression disease. Considering that α2-ARs exert a tonic inhibitory action on NA release from the noradrenergic terminals we assessed the ability of these two new compounds to increase NA extracellular concentration in this area. First, we tested the drugs when administered locally in order to confirm their antagonistic activity over α2-ARs in vivo.
A second step was to study the effect of these compounds increasing NA extracellular concentrations when administered systemically.
In Vivo Microdialysis assays. The experiments were carried out in male Sprague Dawley rats weighing between 250 g and 300 g. At the beginning of the experiments, animals were anaesthetized with chloral hydrate (400 mg/kg i.p.) and a microdialysis probe was implanted by stereotaxic surgery into prefrontal cortex (PFC) brain area. The coordinates selected for the PFC were as follows: AP (anterior to bregma) +2.8 mm, L (lateral from the mid-sagittal suture) +1 mm, DV (ventral from the dura surface) −5 mm.^22 After 24 hours for animal recovery, perfusion fluid (artificial cerebrospinal fluid) is pumped through the probe at a flow rate of 1 μl/min. In the semipermeable membrane, that is the critical side of the probe and is placed on the selected area, molecules flow into and out the cannulae by diffusion. Therefore, microdialysis technique allows local administration of substrates dissolved in the perfusion fluids.
When drugs were locally administered, they were dissolved in a CSF and applied during 70 min via dialysis probe implanted in the PFC in increasing concentrations of 1, 10 and 100 μM. The compounds systemically administered were dissolved in saline and injected intraperitoneally.
Samples, collected with the microdialysis procedure (every 35 min), were analyzed by HPLC with electrochemical detection. NA concentrations were monitorizated by an amperometric detector (Hewlett-Packard model 1049A) at an oxidizing potential of +650 mV. The movil phase (12 mM citric acid, 1 mM EDTA, 0.7 mM octylsodio sulfate, pH 5 and 10% methanol) was filtered, degassed (Hewlett-Packard model 1100 degasser) and delivered at a flow rate of 0.2 ml/min by a Hewlett-Packard model 1100 pump. Stationary phase was a column of 150×2.1 mm (Thermo Electron Corporation, U.S.A.). Samples (injection volume 37 μl) were injected and NA analized in a run time of 10 min. Solution of standard noradrenaline was injected every working day to create a new calibration table.
The mean values of the first three samples before substrate administration were considered as 100% basal value. All measures of extracellular NA concentrations are expressed as percentage of the baseline value±s.e.mean. One way analysis of variance (ANOVA) for control group or two way ANOVA between control and each treated group was assessed for statistical analysis. After the experiments, rats were sacrificed with an overdose of chloral hydrate and the brains were dissected to check the correct implantation of the probe.

mice = test: Tail suspension test; assay type: in vivo; settings: compared with saline control, FIG. 4
Description: The tail suspension test as illustrated in FIG. 4 has become one of the most widely used models for assessing antidepressant-like activity in mice. The test is based on the fact that animals subjected to the short-term, inescapable stress of being suspended by their tail, will develop an immobile posture. Antidepressant medications encourage the animal to struggle and promote the occurrence of escape-related behaviour.

α2-ARs [6] = test: [3H]RX821002 competition binding assay in human brain PFC membranes; settings: 31a vs 10b, 31b vs 17b
Experimental: as §1
[^3H]RX821002 binding assays. […] Incubations were terminated by diluting the samples with 5 ml of ice-cold Tris incubation buffer (4° C.). Membrane bound [^3H]RX821002 was separated by vacuum filtration through Whatman GF/C glass fibre filters. Then, the filters were rinsed twice with 5 ml of incubation buffer and transferred to minivials containing 3 ml of OptiPhase “HiSafe” II cocktail and counted for radioactivity by liquid scintillation spectrometry. Specific binding was determined and plotted as a function of the compound concentration. Non-specific binding was determined in the presence of adrenaline (10^−5 M).
Analysis of binding data. Analysis of competition experiments to obtain the inhibition constant (Ki) were performed by nonlinear regression using the GraphPad Prism program. All experiments were analysed assuming a one-site model of radioligand binding. Ki values were normalized to pKi values.

T1 sequence (P08913 whole entry): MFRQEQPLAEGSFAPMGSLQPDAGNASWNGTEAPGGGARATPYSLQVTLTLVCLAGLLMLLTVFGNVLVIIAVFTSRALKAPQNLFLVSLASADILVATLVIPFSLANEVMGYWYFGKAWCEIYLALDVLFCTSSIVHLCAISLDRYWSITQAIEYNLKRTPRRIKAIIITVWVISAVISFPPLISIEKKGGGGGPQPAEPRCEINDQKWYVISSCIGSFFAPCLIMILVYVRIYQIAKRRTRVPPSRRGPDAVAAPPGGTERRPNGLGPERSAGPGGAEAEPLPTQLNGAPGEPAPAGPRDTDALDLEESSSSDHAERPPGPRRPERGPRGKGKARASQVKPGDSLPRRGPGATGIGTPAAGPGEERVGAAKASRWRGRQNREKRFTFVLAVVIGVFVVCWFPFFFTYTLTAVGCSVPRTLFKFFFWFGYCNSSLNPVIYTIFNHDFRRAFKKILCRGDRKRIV

Structure (SMILES): c1cc2c(cc1NC1=NCCN1)OCO2 [Compound 3]
affinity values (pKi) for the α2-ARs (α2-ARs [1]): 7.33 | agonist or antagonist nature at α2-ARs, previously reported (α2-ARs [2]): α2-AR antagonists; also recorded: antagonist

Structure (SMILES): N=C(N)Nc1ccc2c(c1)OCO2 [Compound 3b]
affinity values (pKi) for the α2-ARs (α2-ARs [1]): 6.40

Emax (α2-ARs [3]): 111%
Structure (SMILES): c1ccc(Cc2ccc(NC3=NCCN3)cc2)cc1 [Compound 4b, 1-(2-imidazolidinyliminio)-4-benzylbenzene]

Structure (SMILES): Cc1ccc(NC2=NCCN2)cc1 [Compound 6b, 1-(2-imidazolidinylimino)-4-methylbenzene]
agonistic or antagonistic properties in [35S]GTPγS experiments (α2-ARs [3]): agonistic properties | stimulation of [35S]GTPγS binding by the compound on its own (α2-ARs [3]): stimulated binding | Emax (α2-ARs [3]): 97% | affinity towards the α2-ARs compared with references (α2-ARs [4]): within the range of those of Idazoxan and/or Clonidine

Structure (SMILES): Cc1ccc(NC2=NCCN2)cc1C [Compound 8b, 1-(2-imidazolidinylimino)-3,4-dimethylbenzene]
agonistic or antagonistic properties in [35S]GTPγS experiments (α2-ARs [3]): agonistic properties | stimulation of [35S]GTPγS binding by the compound on its own (α2-ARs [3]): stimulated binding | Emax (α2-ARs [3]): 89% | affinity towards the α2-ARs compared with references (α2-ARs [4]): within the range of those of Idazoxan and/or Clonidine

Structure (SMILES): c1cc2c(cc1NC1=NCCN1)CCCC2 [Compound 10b, imidazolidin-2-ylidene-(5,6,7,8-tetrahydro-naphthalen-2-yl)-amine]
agonistic or antagonistic properties in [35S]GTPγS experiments (α2-ARs [3]): agonistic properties | stimulation of [35S]GTPγS binding by the compound on its own (α2-ARs [3]): stimulated binding | Emax (α2-ARs [3]): 100% | affinity towards the α2-ARs compared with references (α2-ARs [4]): within the range of those of Idazoxan and/or Clonidine

agonistic or antagonistic properties in [35S]GTPγS experiments (α2-ARs [3]): antagonistic properties | stimulation of [35S]GTPγS binding by the compound on its own (α2-ARs [3]): did not stimulate binding | ability to cross the blood brain barrier (BBB) ([5]; deduced from NA increase after systemic administration): able to cross the blood brain barrier
Structure (SMILES): N=C(N)Nc1ccc2c(c1)CCCC2 [Compound 17b, N-(5,6,7,8-tetrahydro-naphthalen-2-yl)-guanidine]
Emax of increase in extracellular NA levels [5]: 326±113% | α2-AR antagonist properties in vivo ([5]; local and systemic administration, rats): α2-AR antagonist properties in vivo | increase of NA extracellular concentration, maximal effect ([5]; systemic (intraperitoneal) administration, evaluated in PFC): 373±73% | immobility period (mice): slightly shorter immobility period than the saline control | affinity towards the α2-ARs compared with references (α2-ARs [4]): within the range of those of Idazoxan and/or Clonidine

agonistic or antagonistic properties in [35S]GTPγS experiments (α2-ARs [3]): agonistic properties | stimulation of [35S]GTPγS binding by the compound on its own (α2-ARs [3]): did not stimulate binding
Structure (SMILES): c1cc2c(cc1NC1=NCCN1)Cc1ccc(NC3=NCCN3)cc1C2 [Compound 18b, 2,6-di(2-imidazolidinylimino)-9,10-dihydroanthracene]
affinity towards the α2-ARs compared with references (α2-ARs [4]): within the range of those of Idazoxan and/or Clonidine

agonistic or antagonistic properties in [35S]GTPγS experiments (α2-ARs [3]): agonistic properties | stimulation of [35S]GTPγS binding by the compound on its own (α2-ARs [3]): did not stimulate binding
Structure (SMILES): N=C(N)Nc1ccc2c(c1)Cc1ccc(NC(=N)N)cc1C2 [Compound 21b, 2,6-diguanidino-9,10-dihydroanthracene]
affinity towards the α2-ARs compared with references (α2-ARs [4]): within the range of those of Idazoxan and/or Clonidine

Structure (SMILES): c1ccc(Nc2ccc(NC3=NCCN3)cc2)cc1 [Compound 25a]
affinity values (pKi) for the α2-ARs (α2-ARs [1]): 6.56

Structure (SMILES): N=C(N)Nc1ccc(Nc2ccccc2)cc1 [Compound 25b]
affinity values (pKi) for the α2-ARs (α2-ARs [1]): 6.83

Structure (SMILES): c1ccc(Oc2ccc(NC3=NCCN3)cc2)cc1 [Compound 26a]
affinity values (pKi) for the α2-ARs (α2-ARs [1]): 6.58

Structure (SMILES): N=C(N)Nc1ccc(Oc2ccccc2)cc1 [Compound 26b]
affinity values (pKi) for the α2-ARs (α2-ARs [1]): 6.05

Structure (SMILES): c1ccc(Sc2ccc(NC3=NCCN3)cc2)cc1 [Compound 27a]
affinity values (pKi) for the α2-ARs (α2-ARs [1]): 6.62

Structure (SMILES): N=C(N)Nc1ccc(Sc2ccccc2)cc1 [Compound 27b]
affinity values (pKi) for the α2-ARs (α2-ARs [1]): 6.30

Structure (SMILES): COc1ccc(NC2=NCCN2)cc1 [Compound 28a]
affinity values (pKi) for the α2-ARs (α2-ARs [1]): 7.77

Structure (SMILES): COc1ccc(NC(=N)N)cc1 [Compound 28b]
affinity values (pKi) for the α2-ARs (α2-ARs [1]): 6.39

Structure (SMILES): CSc1ccc(NC2=NCCN2)cc1 [Compound 29a]
affinity values (pKi) for the α2-ARs (α2-ARs [1]): 7.07

Structure (SMILES): CSc1ccc(NC(=N)N)cc1 [Compound 29b]
affinity values (pKi) for the α2-ARs (α2-ARs [1]): 6.40

Structure (SMILES): Nc1ccc(NC2=NCCN2)cc1 [Compound 30a]
affinity values (pKi) for the α2-ARs (α2-ARs [1]): 6.92

Structure (SMILES): N=C(N)Nc1ccc(N)cc1 [Compound 30b]
affinity values (pKi) for the α2-ARs (α2-ARs [1]): 5.58

Structure (SMILES): c1cc2c(cc1NC1=NCCN1)OCCO2 [Compound 31a]
pKi higher than methylene containing counterpart (α2-ARs [6]): 0.52 logarithmic units | affinity values (pKi) for the α2-ARs (α2-ARs [1]): 7.85

pKi higher than methylene containing counterpart (α2-ARs [6]): 1.10 logarithmic units
Structure (SMILES): N=C(N)Nc1ccc2c(c1)OCCO2 [Compound 31b]
affinity values (pKi) for the α2-ARs (α2-ARs [1]): 8.21 | agonist or antagonist nature at α2-ARs, previously reported (α2-ARs [2]): agonist

Structure (SMILES): c1ccc2c(c1)OCC(C1=NCCN1)O2 (stereo not drawn) [Idazoxan, reference compound]
Emax of increase in extracellular NA levels [5]: 235±42%
